One data set addresses PIM3 (Homo sapiens (Human), UniProt Q86V86). Nature of the data set: HotSpot radiometric kinase assay (Reaction Biology). It is filed as biochemical. Here is the method: (§1) Briefly, specific kinase/substrate pairs along with required cofactors were prepared in reaction buffer; 20 mM Hepes pH 7.5, 10 mM MgCl2, 1 mM EGTA, 0.02% Brij35, 0.02 mg/ml BSA, 0.1 mM Na3VO4, 2 mM DTT, 1% DMSO. Compounds were delivered into the reaction, followed ˜20 minutes later by addition of a mixture of ATP (Sigma, St. Louis MO) and ^33P ATP (Perkin Elmer, Waltham MA) to a final concentration of […]. Reactions were carried out at room temperature for 120 min, followed by spotting of the reactions onto P81 ion exchange filter paper (Whatman Inc., Piscataway, NJ). Unbound phosphate was removed by extensive washing of filters in 0.75% phosphoric acid. […] IC50 values and curve fits were obtained using Prism (GraphPad Software).

The target in another data set is PIM1 (Homo sapiens (Human), UniProt P11309). The description is as above. It is filed as biochemical. Here is the method: as §1
Sequence of PIM1 (P11309 whole entry): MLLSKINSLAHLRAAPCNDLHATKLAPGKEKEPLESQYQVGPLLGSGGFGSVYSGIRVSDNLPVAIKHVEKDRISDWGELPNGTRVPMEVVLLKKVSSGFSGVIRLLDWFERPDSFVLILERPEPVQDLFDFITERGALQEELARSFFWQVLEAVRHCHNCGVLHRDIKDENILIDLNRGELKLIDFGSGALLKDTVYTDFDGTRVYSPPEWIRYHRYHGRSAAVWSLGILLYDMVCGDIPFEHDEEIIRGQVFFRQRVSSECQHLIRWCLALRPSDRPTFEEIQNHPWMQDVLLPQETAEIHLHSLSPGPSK
The next data set concerns the target PIM2 (Homo sapiens (Human), UniProt Q9P1W9). The data set is described as above. Format: biochemical. The method, then:
as §1

The next data set deals with MV-4-11 cells. Nature of the data set: MV-4-11 cell proliferation assay (CellTiter-Glo 2.0). It is filed as cell-based. The settings on record: MV-4-11, 384-well, 11-dose dilution series, read-out: IC50, inhibition of MV-4-11 cell proliferation. The method, then: MV-4-11 cell line was purchased from ATCC and maintained in RPMI medium supplemented with 10% fetal bovine serum and 100 U/mL of penicillin/streptomycin. One thousand MV-4-11 cells/50 μl per well were seeded in white 384-well plate, followed by treatment with indicated compounds in a 11-dose dilution series. Cell proliferation was measured using CellTiter-Glo 2.0 luciferase-based ATP detection assay (Promega, Madison, WI) following the manufacturer's protocol. Plates were then read on a TECAN Sparks multimode microplate reader. Data was analyzed using GraphPad Prism 9 (GraphPad Software, San Diego, CA) to obtain IC50 values.
Background: Cellular ATP, detected with luciferase, serves as a proxy for viable cell number.

Another data set deals with FLT3 (Homo sapiens (Human), UniProt P36888). Nature of the data set: HotSpot radiometric kinase assay (Reaction Biology). It is filed as biochemical.
Sequence of FLT3 (P36888 27-993): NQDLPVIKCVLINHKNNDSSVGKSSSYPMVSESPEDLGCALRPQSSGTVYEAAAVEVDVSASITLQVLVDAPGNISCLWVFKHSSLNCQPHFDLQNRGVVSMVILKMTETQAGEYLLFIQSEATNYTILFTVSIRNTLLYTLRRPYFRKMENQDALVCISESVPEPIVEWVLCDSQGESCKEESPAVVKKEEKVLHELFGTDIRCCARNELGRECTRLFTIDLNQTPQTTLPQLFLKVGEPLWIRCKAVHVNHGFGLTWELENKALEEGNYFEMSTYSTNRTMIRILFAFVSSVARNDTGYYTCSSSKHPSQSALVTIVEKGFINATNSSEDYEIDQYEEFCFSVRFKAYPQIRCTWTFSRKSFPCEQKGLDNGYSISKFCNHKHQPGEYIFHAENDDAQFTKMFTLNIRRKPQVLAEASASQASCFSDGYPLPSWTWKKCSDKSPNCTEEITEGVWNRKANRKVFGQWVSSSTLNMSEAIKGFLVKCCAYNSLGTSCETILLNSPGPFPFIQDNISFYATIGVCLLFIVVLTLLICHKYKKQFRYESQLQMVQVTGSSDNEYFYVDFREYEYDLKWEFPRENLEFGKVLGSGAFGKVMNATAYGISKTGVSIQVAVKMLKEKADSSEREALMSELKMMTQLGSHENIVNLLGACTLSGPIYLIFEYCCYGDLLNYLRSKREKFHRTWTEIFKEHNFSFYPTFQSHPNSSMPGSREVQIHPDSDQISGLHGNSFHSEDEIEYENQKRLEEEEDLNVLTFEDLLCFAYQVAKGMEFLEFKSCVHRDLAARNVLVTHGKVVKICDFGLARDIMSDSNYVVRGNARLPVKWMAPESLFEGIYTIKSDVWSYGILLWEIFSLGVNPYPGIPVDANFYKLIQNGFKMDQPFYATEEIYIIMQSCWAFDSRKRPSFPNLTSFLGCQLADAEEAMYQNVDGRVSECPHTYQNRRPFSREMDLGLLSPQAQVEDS
Data set [1] concerns the target FLT3-ITD (Homo sapiens, UniProt P36888). The data set is described as above. It is filed as biochemical.
Procedure: (§4) Briefly, specific kinase/substrate pairs along with required cofactors were prepared in reaction buffer; 20 mM Hepes pH 7.5, 10 mM MgCl2, 1 mM EGTA, 0.02% Brij35, 0.02 mg/ml BSA, 0.1 mM Na3VO4, 2 mM DTT, 1% DMSO. Compounds were delivered into the reaction, followed ˜20 minutes later by addition of a mixture of ATP (Sigma, St. Louis MO) and ^33P ATP (Perkin Elmer, Waltham MA) to a final concentration of 10 M. Reactions were carried out at room temperature for 120 min, followed by spotting of the reactions onto P81 ion exchange filter paper (Whatman Inc., Piscataway, NJ). Unbound phosphate was removed by extensive washing of filters in 0.75% phosphoric acid. […] IC50 values and curve fits were obtained using Prism (GraphPad Software).
Data set [2] deals with FLT3-ITD (Homo sapiens, UniProt P36888, ITD). Described as above. Format: biochemical.
Sequence of FLT3-ITD (Homo sapiens, UniProt P36888, ITD) (P36888 whole entry, looked up, change not shown): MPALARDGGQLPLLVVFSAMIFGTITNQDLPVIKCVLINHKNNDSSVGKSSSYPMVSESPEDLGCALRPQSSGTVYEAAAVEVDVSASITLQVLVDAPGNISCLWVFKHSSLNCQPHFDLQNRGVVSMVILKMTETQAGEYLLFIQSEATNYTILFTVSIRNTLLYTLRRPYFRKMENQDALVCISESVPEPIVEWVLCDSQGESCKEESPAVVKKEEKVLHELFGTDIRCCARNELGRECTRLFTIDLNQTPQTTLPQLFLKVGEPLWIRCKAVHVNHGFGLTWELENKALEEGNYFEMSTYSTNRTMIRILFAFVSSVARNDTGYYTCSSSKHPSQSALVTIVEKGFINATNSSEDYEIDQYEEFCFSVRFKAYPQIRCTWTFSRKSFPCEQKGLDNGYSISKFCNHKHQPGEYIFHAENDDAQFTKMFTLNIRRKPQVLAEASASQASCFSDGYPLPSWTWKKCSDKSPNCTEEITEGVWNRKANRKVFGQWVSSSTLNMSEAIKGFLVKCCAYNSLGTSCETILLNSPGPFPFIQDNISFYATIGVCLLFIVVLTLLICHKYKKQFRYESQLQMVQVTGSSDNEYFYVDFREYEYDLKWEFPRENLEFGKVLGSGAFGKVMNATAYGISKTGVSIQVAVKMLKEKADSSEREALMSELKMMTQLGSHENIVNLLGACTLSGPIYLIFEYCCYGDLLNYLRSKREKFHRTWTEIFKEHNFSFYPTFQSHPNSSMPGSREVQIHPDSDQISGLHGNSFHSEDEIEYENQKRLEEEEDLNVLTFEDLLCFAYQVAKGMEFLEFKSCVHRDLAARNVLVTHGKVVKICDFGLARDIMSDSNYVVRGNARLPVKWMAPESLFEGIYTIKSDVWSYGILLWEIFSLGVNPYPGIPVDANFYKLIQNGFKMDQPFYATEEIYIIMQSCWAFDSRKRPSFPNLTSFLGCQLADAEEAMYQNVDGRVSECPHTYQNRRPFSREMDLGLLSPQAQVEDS
Procedure: as §4
Data set [3] relates to Phospho-S6 Ribosomal Protein (S235/236). Nature of the data set: Inhibition of kinase phosphorylation by Western Blot in MOLM-13. Format: cell-based. The settings on record: Homo sapiens; MOLM-13 cells, 4 hour-incubation; read-out: pS6 MOLM-13 IC50. The method, then:
(§2) Inhibition of kinase phosphorylation assay was performed by Western Blot using MV-4-11 and MOLM13 cell lines. Cells were plated in 24 well plates at 1 million cells per well and then treated with compounds at different concentrations, starting at 100 nM, 1:4 titration with DMSO as control. After 4 hour-incubation, cells were washed once with ice-cold PBS, and lysed in RIPA lysis buffer with protease and phosphatase inhibitors. The cell lysates were then sonicated and spun down, and 40 μg of proteins were separated by sodium dodecyl sulfate electrophoresis on a 4 to 12% Bis-Tris polyacrylamide gel and transferred onto nitrocellulose membranes using Bio-Rad Trans-Blot Turbo Transfer System (Bio-Rad). Blocking was performed using 3% BSA or 5% Non-fat dry milk (Fisher Scientific) in TBST (Tris-buffered saline containing 0.05% of Tween 20) (Bio-Rad Laboratories, Inc.). The membranes were incubated overnight with anti-phospho-FLT3 (Y589/Y591) (CST #60413), anti-phospho-STAT5 (Y694) (CST #4322), anti-Phospho-p44/42 MAPK (Erk1/2) (T202/Y204) (CST #9101), anti-Phospho-S6 Ribosomal Protein (S235/236) (CST #4858) and anti-β-Actin (CST #8457) each diluted 1000 times in 3% BSA in TBST. Membranes were washed with TBST and then incubated at room temperature for 1 hour with HRP-labeled anti-rabbit IgG polyclonal antibody (CST #7074) diluted 1000 times in 3% BSA. After TBST washing, blots were developed with a chemiluminescence system (SuperSignal West Femto Maximum Sensitivity Substrate, Pierce #34095). Luminescence was detected by LI-COR Odyssey M imaging system and luminescence intensity were quantified using Empiria Studio 2.2 software. Data was analyzed using GraphPad Prism 9 (GraphPad Software, San Diego, CA) to obtain IC50 values.
On the technique in general: In western blotting, separated proteins are transferred to a membrane and probed.

For data set [4], the system named is phospho-STAT5 (Y694). The description is as above. It is filed as cell-based. The settings on record: Homo sapiens; MOLM-13 cells, 4 hour-incubation; read-out: pSTAT5 MOLM-13 IC50. The method, then:
as §2

Data set [5] has as its system Phospho-p44/42 MAPK (Erk1/2) (T202/Y204). The description is as above. It is filed as cell-based. The settings on record: Homo sapiens; MOLM-13 cells, 4 hour-incubation; read-out: pERK MOLM-13 IC50. Here is the method:
as §2

For data set [6], the system named is Phospho-S6 Ribosomal Protein (S235/236). Nature of the data set: Inhibition of kinase phosphorylation by Western Blot in MV-4-11. It is filed as cell-based. Particulars: Homo sapiens, MV4-11; MV-4-11 cells, 4 hour-incubation; read-out: pS6 MV-4-11 IC50. The method, then:
as §2

In data set [7] the test system is phospho-STAT5 (Y694). Described as above. It is filed as cell-based. Particulars: Homo sapiens, MV4-11; MV-4-11 cells, 4 hour-incubation; read-out: pSTAT5 MV-4-11 IC50. Here is the method:
as §2

Data set [8] concerns Phospho-p44/42 MAPK (Erk1/2) (T202/Y204). The description is as above. Particulars: Homo sapiens, MV4-11; MV-4-11 cells, 4 hour-incubation; read-out: pERK MV-4-11 IC50. Format: cell-based. The method, then:
as §2

For data set [9] the following is noted: from C=Cc1nn(C2CCCCO2)c2ccc(-c3cnn(C)c3OCCN(C)C(=O)c3c(I)c(Br)nn3C)cc12; cc_pd bond; Pd(OAc)2, NaHCO3, TBAC; DMF; 54.0 mM; 140.0 °C; 1.5 h.
The next data set addresses CLK1 (Homo sapiens (Human), UniProt P49759). Nature of the data set: CLK kinase activity assay (ADP-Glo). Format: biochemical. The method, then:
(§3) Kinase protein and substrate were pre-diluted in the HEPES assay buffer (100 mM HEPES, pH 7.5, 0.01% Triton X-100, 0.1% BSA, 5 mM MgCl2, 1 mM DTT, 10 μM Sodium Orthovanadate, 10 μM Beta-Glycerophosphate) dispensed into 384 well plate (5 μL per well). Control samples (0%-inhibition in the absence of inhibitor, DMSO only) and 100%-inhibition (in the absence of enzyme) were assembled in replicates of six and were used to calculate %-inhibition in the presence of compounds. Test compounds were added to the protein samples by acoustic dispensing (Labcyte Echo550). Concentration of DMSO was equalized to 1% in all samples. Reactions were initiated by addition of ATP by acoustic dispensing (Labcyte Echo550) and incubated according to assay specific incubation time. After incubation, 5 uL of Promega ADP-Glo reagent was added and incubated for 40 minutes. After 40 minutes, 10 uL of Promega kinase detection reagent was added. After 10 min of incubation with Kinase detection reagent, the luminescence was read on microplate reader (Biotek Synergy).

A further data set deals with CLK2 (Homo sapiens (Human), UniProt P49760). Nature of the data set: CLK kinase activity assay (ADP-Glo). It is filed as biochemical. Here is the method:
as §3

The target of another data set is CLK4 (Homo sapiens (Human), UniProt Q9HAZ1). Nature of the data set: CLK kinase activity assay (ADP-Glo). Format: biochemical. Here is the method:
as §3
Background: In ADP-Glo the light output rises with the ADP produced.

For the next data set, the target named is CLK3 (Homo sapiens (Human), UniProt P49761). Nature of the data set: CLK kinase activity assay (ADP-Glo). It is filed as biochemical. Here is the method: as §3
Sequence of CLK3 (P49761 whole entry): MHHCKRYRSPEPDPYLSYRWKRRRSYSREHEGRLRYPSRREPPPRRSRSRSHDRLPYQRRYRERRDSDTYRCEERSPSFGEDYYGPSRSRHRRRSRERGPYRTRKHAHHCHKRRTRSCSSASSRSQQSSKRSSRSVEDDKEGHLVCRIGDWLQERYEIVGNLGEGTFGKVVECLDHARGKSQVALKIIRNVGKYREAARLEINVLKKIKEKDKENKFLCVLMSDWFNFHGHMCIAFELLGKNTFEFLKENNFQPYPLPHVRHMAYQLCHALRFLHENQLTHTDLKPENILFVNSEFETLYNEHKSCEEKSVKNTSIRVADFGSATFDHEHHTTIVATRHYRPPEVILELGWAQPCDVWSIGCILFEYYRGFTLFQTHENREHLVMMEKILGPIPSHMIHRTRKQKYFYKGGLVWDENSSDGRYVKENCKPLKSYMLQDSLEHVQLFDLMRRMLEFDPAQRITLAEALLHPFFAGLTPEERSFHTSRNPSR

Where two headings read alike, the source gives them in different places.

Sequence of PIM2 (Q9P1W9 whole entry): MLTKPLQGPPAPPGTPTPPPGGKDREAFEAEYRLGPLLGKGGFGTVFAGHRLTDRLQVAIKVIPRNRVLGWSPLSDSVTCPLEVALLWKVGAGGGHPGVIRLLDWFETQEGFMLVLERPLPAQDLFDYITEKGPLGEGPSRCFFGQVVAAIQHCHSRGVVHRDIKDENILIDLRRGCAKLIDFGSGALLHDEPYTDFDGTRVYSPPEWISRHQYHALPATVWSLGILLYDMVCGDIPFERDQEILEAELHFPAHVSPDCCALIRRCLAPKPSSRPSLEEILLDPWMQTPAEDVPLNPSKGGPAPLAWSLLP
Sequence of CLK1 (P49759 whole entry): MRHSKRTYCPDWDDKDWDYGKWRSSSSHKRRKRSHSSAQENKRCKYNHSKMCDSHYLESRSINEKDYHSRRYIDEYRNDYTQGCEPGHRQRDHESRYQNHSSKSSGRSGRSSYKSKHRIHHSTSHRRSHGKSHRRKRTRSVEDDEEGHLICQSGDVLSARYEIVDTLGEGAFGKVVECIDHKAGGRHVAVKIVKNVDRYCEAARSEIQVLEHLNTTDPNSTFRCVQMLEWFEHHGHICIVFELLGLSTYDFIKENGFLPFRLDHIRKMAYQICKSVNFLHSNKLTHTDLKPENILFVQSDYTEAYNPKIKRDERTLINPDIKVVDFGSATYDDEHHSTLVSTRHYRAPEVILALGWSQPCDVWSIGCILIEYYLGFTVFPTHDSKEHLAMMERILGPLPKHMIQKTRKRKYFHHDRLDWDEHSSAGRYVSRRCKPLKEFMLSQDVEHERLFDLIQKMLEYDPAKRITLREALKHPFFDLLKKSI
Sequence of FLT3-ITD (Homo sapiens, UniProt P36888) (P36888 whole entry, looked up, change not shown): as the sequence (P36888 whole entry, looked up, change not shown) above
Sequence of CLK2 (P49760 whole entry): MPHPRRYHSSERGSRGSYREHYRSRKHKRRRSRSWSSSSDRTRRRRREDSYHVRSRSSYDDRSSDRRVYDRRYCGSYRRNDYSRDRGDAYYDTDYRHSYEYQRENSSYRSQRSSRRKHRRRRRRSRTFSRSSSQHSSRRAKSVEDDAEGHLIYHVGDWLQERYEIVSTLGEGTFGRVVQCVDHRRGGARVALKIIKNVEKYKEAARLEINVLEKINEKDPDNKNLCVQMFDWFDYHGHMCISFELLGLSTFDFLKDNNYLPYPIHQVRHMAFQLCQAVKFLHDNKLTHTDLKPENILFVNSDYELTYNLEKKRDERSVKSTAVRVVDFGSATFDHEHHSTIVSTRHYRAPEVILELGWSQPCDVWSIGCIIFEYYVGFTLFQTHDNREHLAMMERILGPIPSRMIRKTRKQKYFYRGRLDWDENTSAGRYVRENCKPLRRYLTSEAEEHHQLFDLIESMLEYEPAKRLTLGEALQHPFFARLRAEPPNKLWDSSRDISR
Sequence of CLK4 (Q9HAZ1 whole entry): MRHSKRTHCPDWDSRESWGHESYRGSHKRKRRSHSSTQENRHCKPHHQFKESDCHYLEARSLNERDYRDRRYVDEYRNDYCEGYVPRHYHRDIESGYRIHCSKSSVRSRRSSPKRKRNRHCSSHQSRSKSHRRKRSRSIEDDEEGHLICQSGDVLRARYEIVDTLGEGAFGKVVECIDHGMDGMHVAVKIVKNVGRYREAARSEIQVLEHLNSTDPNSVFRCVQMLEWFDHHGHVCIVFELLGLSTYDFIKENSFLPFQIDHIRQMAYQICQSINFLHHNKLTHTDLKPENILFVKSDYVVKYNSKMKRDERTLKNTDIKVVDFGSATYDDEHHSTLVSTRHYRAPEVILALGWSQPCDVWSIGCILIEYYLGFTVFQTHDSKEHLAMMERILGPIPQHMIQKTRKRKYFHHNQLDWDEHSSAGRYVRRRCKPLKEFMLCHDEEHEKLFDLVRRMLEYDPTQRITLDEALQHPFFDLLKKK

For the molecule `CCc1c2c(nn1C)C(=O)N(C)CCOc1c(cnn1C)-c1ccc3[nH]nc(c3c1)/C=C/2` [compound 7, (17E)-16-ethyl-8,12,15-trimethyl-2,11,12,15-tetrahydro-8H-3,5-ethenotripyrazolo[3,4-f:3′,4′-j:4″,3″-n][1,4]oxazacyclopentadecin-13(10H)-one], the IC50 came out at 0.221 nM at PIM3; 6.72 nM at PIM1; 14 nM against PIM2; 73.1 nM in the data set with MV-4-11 cells; 0.247 nM against FLT3; 0.537 nM against FLT3-ITD [1].

With `Cc1c2c(nn1C)C(=O)N(C)CCOc1c(cnn1C)-c1ccc3[nH]nc(c3c1)/C=C/2` [compound 9, (17E)-8,12,15,16-tetramethyl-2,11,12,15-tetrahydro-8H-3,5-ethenotripyrazolo[3,4-f:3′,4′-j:4″,3″-n][1,4]oxazacyclopentadecin-13(10H)-one], the IC50 is 3.65 nM on PIM3; 12.7 nM on PIM1; 145 nM against PIM2; approximately 1 nM in the data set on MV-4-11 cells (Homo sapiens, MV4-11); 0.347 nM at FLT3; 0.592 nM against FLT3-ITD [2].

On to `Cc1nn(C)c2c1/C=C/c1n[nH]c3ccc(cc13)-c1cnn(C)c1OCCN(C)C2=O` [compound 8, (17E)-8,12,14,16-tetramethyl-2,11,12,14-tetrahydro-8H-3,5-ethenotripyrazolo[3,4-f:3′,4′-j:4″,3″-n][1,4]oxazacyclopentadecin-13(10H)-one], for which the IC50 against PIM3 was 0.0732 nM; against PIM1 it was 1.64 nM; against PIM2, 8.17 nM; in the data set on MV-4-11 cells (Homo sapiens, MV4-11) it was less than 0.2 nM.

For `CCc1nc(C(N)=O)c(Nc2ccc(N3CCC(N4CCN(C)CC4)CC3)c(OC)c2)nc1NC1CCOCC1` [Gilteritinib, reference compound], the IC50 in [3] amounted to 7.91 nM; with phospho-STAT5 (Y694) [4] it was 2.23 nM; in [5] it was 1.31 nM; in data set [6], 0.92 nM; with phospho-STAT5 (Y694) [7] it was 1.75 nM; in data set [8] it was 1.63 nM.

In data set [9], `CN1CCOc2c(cnn2C)-c2ccc3c(c2)c(nn3C2CCCCO2)/C=C/c2c(Br)nn(C)c2C1=O` (stereo not drawn) displayed a ring closure, yield of all isomers of 94.8%.

With `CN1CCOc2c(cnn2C)-c2ccc3[nH]nc(c3c2)/C=C/c2c(C#N)nn(C)c2C1=O` [Ex. 24, (17E)-8,12,14-trimethyl-13-oxo-2,10,11,12,13,14-hexahydro-8H-3,5-ethenotripyrazolo[3,4-f:3′,4′-j:4″,3″-n][1,4]oxazacyclopentadecine-16-carbonitrile], the IC50 with MV-4-11 cells (Homo sapiens, MV4-11) worked out at 141 nM; at CLK1, 0.415 nM; on CLK2, 0.67 nM; at CLK4, 0.593 nM; on CLK3, 92.9 nM; on FLT3 it was 0.23 nM. At FLT3-ITD [2], this molecule yielded an IC50 of 0.475 nM.

The values are drawn from patent US20260070924A1, “INDAZOLE MACROCYCLES AND THEIR USE” (BLOSSOMHILL THERAPEUTICS, INC., priority 2022, published 2026).
